Paper PMC10135033, “Sulfonamidoboronic Acids as “Cross-Class” Inhibitors of an Expanded-Spectrum Class C Cephalosporinase, ADC-33, and a Class D Carbapenemase, OXA-24/40: Strategic Compound Design to Combat Resistance in Acinetobacter baumannii” (Antibiotics, 2023)

Key:
ADC-33 = ADC-33 (Acinetobacter baumannii, UniProt A7Y407); assay: Ki determination, competition assay with nitrocefin (NCF) as substrate; type: biochemical; details: for Ki: corrected for NCF affinity, 5 min pre-incubation, pH 7.4
Protocol: (§1) The affinity of CR167 for the two different β-lactamases was measured in competition assays using nitrocefin (NCF) as the indicator substrate (Table 1).
(§2) The binding affinity of each of the compounds 6a–e with ADC-33 and with OXA-24/40 was determined after 5 min pre-incubation of boronic acid and the enzyme, using competition assays with nitrocefin (NCF) as the substrate. […] These compounds differ in three structural characteristics: stereochemistry, the presence of the m-carboxylate on the aromatic ring, and the small chain linked to the chiral center. […] Finally, the smaller the steric hindrance is at the R1 position, the higher the affinity is.
(§3) Ki values were determined by using nitrocefin as a reporter substrate and treating the compounds as competitive inhibitors. Steady-state kinetic parameters were determined by combining pure enzyme with nitrocefin in 50 mM NaH2PO4; 25 mM NaHCO3, pH 7.4 (for OXA-24/40); or 50 mM NaH2PO4, pH 7.4 (for ADC-33), at room temperature. Changes in absorbance were measured on a Cary 60 UV−Vis spectrophotometer (Agilent Technologies) and converted to velocity using the change-in-extinction coefficient specific to nitrocefin (ε = 17,400 M^−1·cm^−1 at 482 nm). Initial velocities were fit to the Michaelis–Menten equation, yielding kcat and Km values. Next, the enzyme was challenged with a constant concentration of nitrocefin and increasing amounts of inhibitor. IC50 values were used to calculate Ki values using the Cheng–Prusoff equation as previously described. Specifically, the measurements of the initial velocities were performed with the addition of 100 µM NCF after a 5 min pre-incubation of the enzyme (2 nM) with increasing concentration of the inhibitor [37]. To determine the average velocities (v0), data from three experiments were fit to Equation (1): (1) v0=vu −{vu[I]/IC 50+[I]} where vu represents the NCF uninhibited velocity and IC50 represents the inhibitor concentration that results in a 50% reduction in vu. The Ki value was corrected for the NCF affinity (Km values for both OXA-24/40 and ADC-33) with the Cheng–Prusoff equation (Equation (2)): (2) Ki=IC50/(1+[NCF]/KmNCF)

OXA-24/40 [1] = target: T1, OXA-24/40 (Acinetobacter baumannii, UniProt Q8RLA6); assay: as above; type: biochemical; details: corrected for NCF affinity; 5 min pre-incubation; pH 7.4, 25 mM NaHCO3; read-out: Ki OXA-24/40
T1 construct: made in house
T1 sequence (Q8RLA6 22-275): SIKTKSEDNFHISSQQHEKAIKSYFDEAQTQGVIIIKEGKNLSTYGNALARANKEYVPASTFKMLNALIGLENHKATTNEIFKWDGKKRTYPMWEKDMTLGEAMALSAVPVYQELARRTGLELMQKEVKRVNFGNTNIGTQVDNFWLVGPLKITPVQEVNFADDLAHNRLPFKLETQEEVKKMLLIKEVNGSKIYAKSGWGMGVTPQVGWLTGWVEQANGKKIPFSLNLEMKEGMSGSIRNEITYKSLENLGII
Protocol: as §1, §2, §3

[2] = system: E. coli DH10B pBCSK, blaADC-7; set-up: method as in PMID 29144724; details: without inhibitor; cited from earlier work
[3] = system: E. coli DH10B, ADC-33 in pBCSK-; assay: Antimicrobial susceptibility testing, broth microdilution; type: cell-based; details: BLI none; E. coli DH10B ADC-33 pBCSK-
Protocol: (§4) Based upon the inhibitor kinetics (Ki determinations), CR167 and the sulfonamidoboronic acid 6b were tested against E. coli strains expressing ADC-7 and ADC-33 cloned into pBCSK- (DH10B) (Table 3).
(§5) blaADC-7 pBCSK- and blaADC-33 pBCSK- were cloned and expressed in E. coli DH10B cells as previously described.
(§6) Testing of susceptibility to standard antibiotics was performed with broth microdilution according to CLSI guidelines. MICs for CAZ, CTX, FEP, and IMI were determined using cation-adjusted Mueller–Hinton broth according to CLSI methods, and CR167 or 6b was used at a fixed concentration of 10 mg/L. All MICs were interpreted according to the 2022 Clinical and Laboratory Standards Institute (CLSI) guidelines.

[4] = system: E. coli DH10B, ADC-7 in pBCSK-; assay: as above; type: cell-based; details: BLI none; E. coli DH10B ADC-7 pBCSK-
Protocol: as §4, §5, §6

[5] = system: clinical A. baumannii isolate PR474 (OXA-23, OXA-24, OXA-65, ADC-218); assay: Antimicrobial susceptibility testing, clinical isolate, broth microdilution; type: cell-based; details: BLI none; PR474
Protocol: (§7) Clinical A. baumannii isolates containing ADC-33 or OXA-24/-40 in combination with various other well-defined β-lactamases were also tested against CR167 and 6b (Table 5).
(§8) The clinical A. baumannii isolates used to test the β-lactamase inhibitors were selected from a previously well-characterized collection in our lab. They were chosen as they had either ADC-33 and/or OXA-24 in combination with other known β-lactamases (for specific combinations, see Table 5).
as §6

[6] = system: clinical A. baumannii isolate PR378 (OXA-24, OXA-65, TEM-1); assay: as above; type: cell-based; details: BLI none; PR378
Protocol: as §7, §8, §6

[7] = system: clinical A. baumannii isolate PR396 (OXA-82, ADC-33); assay: as above; type: cell-based; details: BLI none
Protocol: as §7, §8, §6

[8] = system: clinical A. baumannii isolate PR323 (OXA-24, OXA-65, ADC-218); assay: as above; type: cell-based; details: BLI none; PR323
Protocol: as §7, §8, §6

[9] = system: clinical A. baumannii isolate PR408 (OXA-24, OXA-71, ADC-212); assay: as above; type: cell-based; details: BLI none; PR408
Protocol: as §7, §8, §6

[10] = system: clinical A. baumannii isolate PR462 (OXA-24, OXA-65, ADC-214); assay: as above; type: cell-based; details: BLI none
Protocol: as §7, §8, §6

[11] = system: clinical A. baumannii isolate PR328 (OXA-23, OXA-82, ADC-33); assay: as above; type: cell-based; details: BLI none; PR328
Protocol: as §7, §8, §6

[12] = system: A. baumannii ATCC 17978 native ADC KO, ADC-33 pQF1266; assay: Antimicrobial susceptibility testing, broth microdilution; type: cell-based; details: BLI none; ATCC 17978 ADC KO, ADC-33 pQF1266
Protocol: (§9) The inhibitory effects of both compounds were tested against ADC-33 and OXA-24/-40 in A. baumannii, their native host. ATCC 17978, with its intrinsic chromosomal ADC knocked out (intrinsic OXA still present), was used in these experiments. In this isolate, the ADC MICs were not lowered by the inhibitors as much as they were against the E. coli background (Table 4).
Plasmid pBCSK- containing the blaADC-33 gene was digested with PvuII, which released the blaADC-33 gene, along with the lac promoter, which drives expression. This PvuII fragment was cloned into the SmaI site of the pQF1266 plasmid.
(§10) pWH1266 is a vector that replicates in A. baumannii, and the […] pWH1266 construct was generated as follows. The TEM gene was removed using inverse PCR, and an Xba1 site was engineered into the vector. blaOXA-24/40 and its upstream XerC/XerD were amplified from strain NM55. The amplified gene was cloned into the Xba1 site of the altered pWH1266 vector. The construct was confirmed using PCR and sequencing. Both blaADC-33 pQF1266 and […] pWH1266 were then expressed in A. baumannii ATCC 17978 that had the intrinsic chromosomal ADC gene knocked out.
(§11) The chromosomal blaADC-51 gene in ATCC 17978 was deleted and replaced with an apramycin resistance cassette using the recombineering method described by Tucker et al.. Primers used for this deletion were: Del AmpC-apra.For: […]; and Del AmpC-apra.Rev: […]. The correct deletion mutant was confirmed using PCR and sequencing.
as §6

[13] = system: A. baumannii ATCC 17978 native ADC KO, OXA-24 pWH1266; assay: as above; type: cell-based; details: BLI none; ATCC 17978 ADC KO, OXA-24 pWH1266
Protocol: as §9, §10, §11, §6

OXA-24/40 [14] = system: OXA-24/40; set-up: method as in PMID 20299220; details: cited from earlier work

Compound | Ki (ADC-33) | Ki (OXA-24/40 [1]) | MIC, antibiotic alone [3] | MIC, antibiotic alone [4] | MIC, antibiotic alone [5] | MIC, antibiotic alone [6] | MIC, antibiotic alone [7] | MIC, antibiotic alone [8] | MIC, antibiotic alone [9] | MIC, antibiotic alone [10] | MIC, antibiotic alone [11] | MIC, antibiotic alone [12] | MIC, antibiotic alone [13] | further results
C[C@@H](NS(=O)(=O)Cc1ccccc1)B(O)O [6a] | 3.1 ± 0.5 µM | 630 ± 70 µM |  |  |  |  |  |  |  |  |  |  |  | fold less potent than 6b, ADC-33 (ADC-33; ratio of Ki, 6a vs 6b): 4 fold
CC[C@@H](NS(=O)(=O)Cc1ccccc1)B(O)O [6c] | 193 ± 23 µM | > 1000 µM |  |  |  |  |  |  |  |  |  |  |  | 
CC[C@@H](NS(=O)(=O)Cc1cccc(C(=O)O)c1)B(O)O [6d] | 22 ± 3 µM | 320 ± 30 µM |  |  |  |  |  |  |  |  |  |  |  | 
CC[C@H](NS(=O)(=O)Cc1cccc(C(=O)O)c1)B(O)O [6e] | 3.7 ± 0.6 µM | > 1000 µM |  |  |  |  |  |  |  |  |  |  |  | 
CC(C)(O/N=C(\C(=O)N[C@@H]1C(=O)N2C(C(=O)[O-])=C(C[n+]3ccccc3)CS[C@H]12)c1csc(N)n1)C(=O)O [CAZ, ceftazidime, reference compound] |  |  | 2048 µg/mL | 64 µg/mL | 4096 µg/mL | 64 µg/mL | 2048 µg/mL | 4096 µg/mL | 1024 µg/mL | 256 µg/mL | 2048 µg/mL | 128 µg/mL | 8 µg/mL | MIC for CAZ alone [2]: 64 µg/mL
CO/N=C(\C(=O)N[C@@H]1C(=O)N2C(C(=O)O)=C(COC(C)=O)CS[C@H]12)c1csc(N)n1 [CTX, Cefotaxime, reference compound] |  |  | 128 µg/mL | 64 µg/mL | 1024 µg/mL | 64 µg/mL | 512 µg/mL | 2048 µg/mL | 1024 µg/mL | 1024 µg/mL | 256 µg/mL | 32 µg/mL | 16 µg/mL | 
O=S(=O)(NCB(O)O)c1cc2c(Cl)ccc(Cl)c2s1 [DSABA, 4,7-dichloro-1-benzothien-2-yl-sulfonylaminomethyl boronic acid] |  |  |  |  |  |  |  |  |  |  |  |  |  | IC50 (OXA-24/40 [14]): 5.6 µM
CO/N=C(\C(=O)N[C@@H]1C(=O)N2C(C(=O)[O-])=C(C[N+]3(C)CCCC3)CS[C@H]12)c1csc(N)n1 [FEP, cefepime, reference compound] |  |  | 0.5 µg/mL | 0.5 µg/mL |  |  |  |  |  |  |  | 4 µg/mL | 32 µg/mL | 
C[C@@H](O)[C@H]1C(=O)N2C(C(=O)O)=C(SCCN=CN)C[C@H]12 [IMI, reference compound] |  |  |  |  | 128 µg/mL | 256 µg/mL | 64 µg/mL | 128 µg/mL | 128 µg/mL | 64 µg/mL | 128 µg/mL |  |  | 
